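Assay format: 96-well plates, 48-hour exposure. Definition used: TGI = concentration required for complete inhibition of growth.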
Experiments:
Test in all cases: NCI-60 cell line screen, 48 h
[1] = tested on: 786-0 renal
[2] = tested on: A498 renal
[3] = tested on: A549 NSCLC
[4] = tested on: ACHN renal
[5] = tested on: CAKI-1 renal
[6] = tested on: CCRF-CEM leukemia
[7] = tested on: COLO 205 colon
[8] = tested on: DLD-1 colon
[9] = tested on: DMS 114 small cell lung
[10] = tested on: DMS 273 small cell lung
[11] = tested on: EKVX NSCLC
[12] = tested on: HCC-2998 colon
[13] = tested on: HCT-116 colon
[14] = tested on: HCT-15 colon
[15] = tested on: HL-60(TB) leukemia
[16] = tested on: HOP-18 NSCLC
[17] = tested on: HOP-62 NSCLC
[18] = tested on: HOP-92 NSCLC
[19] = tested on: HT29 colon
[20] = tested on: IGROV1 ovarian
[21] = tested on: K-562 leukemia
[22] = tested on: KM12 colon
[23] = tested on: KM20L2 colon
[24] = tested on: LXFL 529 NSCLC
[25] = tested on: M14 melanoma
[26] = tested on: M19-MEL melanoma
[27] = tested on: MALME-3M melanoma
[28] = tested on: MOLT-4 leukemia
[29] = tested on: NCI-H226 lung
[30] = tested on: NCI-H23 lung
[31] = tested on: NCI-H460 lung
[32] = tested on: NCI-H522 lung
[33] = tested on: OVCAR-3 ovarian
[34] = tested on: OVCAR-4 ovarian
[35] = tested on: OVCAR-5 ovarian
[36] = tested on: OVCAR-8 ovarian
[37] = tested on: RPMI-8226 leukemia
[38] = tested on: RXF-631 renal
[39] = tested on: SF-268 CNS
[40] = tested on: SF-295 CNS
[41] = tested on: SF-539 CNS
[42] = tested on: SK-MEL-28 melanoma
[43] = tested on: SK-MEL-5 melanoma
[44] = tested on: SK-OV-3 ovarian
[45] = tested on: SN12C renal
[46] = tested on: SNB-19 CNS
[47] = tested on: SNB-75 CNS
[48] = tested on: SNB-78 CNS
[49] = tested on: SW-620 colon
[50] = tested on: TK-10 renal
[51] = tested on: U251 CNS
[52] = tested on: UACC-257 melanoma
[53] = tested on: UACC-62 melanoma
[54] = tested on: UO-31 renal
[55] = tested on: LOX IMVI melanoma
[56] = tested on: RXF 393 renal
[57] = tested on: SR leukemia

O=C(CCc1n[nH]c(=S)o1)Nc1cc(Cl)c(Cl)cc1Cl
TGI [1]: 63.6 µM | TGI [2]: 91.8 µM | TGI [3]: > 100 µM | TGI [4]: > 100 µM | TGI [5]: > 100 µM | TGI [6]: > 100 µM | TGI [7]: > 100 µM | TGI [8]: 86.3 µM | TGI [9]: > 100 µM | TGI [10]: 72.5 µM | TGI [11]: > 100 µM | TGI [12]: > 100 µM | TGI [13]: 30 µM | TGI [14]: 49.9 µM | TGI [15]: > 100 µM | TGI [16]: > 100 µM | TGI [17]: > 100 µM | TGI [18]: > 100 µM | TGI [19]: > 100 µM | TGI [20]: > 100 µM | TGI [21]: 49 µM | TGI [22]: > 100 µM | TGI [23]: > 100 µM | TGI [24]: > 100 µM | TGI [25]: > 100 µM | TGI [26]: > 100 µM | TGI [27]: > 100 µM | TGI [28]: > 100 µM | TGI [29]: > 100 µM | TGI [30]: > 100 µM | TGI [31]: > 100 µM | TGI [32]: > 100 µM | TGI [33]: > 100 µM | TGI [34]: > 100 µM | TGI [35]: > 100 µM | TGI [36]: > 100 µM | TGI [37]: 50.8 µM | TGI [38]: > 100 µM | TGI [39]: > 100 µM | TGI [40]: > 100 µM | TGI [41]: > 100 µM | TGI [42]: > 100 µM | TGI [43]: > 100 µM | TGI [44]: > 100 µM | TGI [45]: > 100 µM | TGI [46]: > 100 µM | TGI [47]: > 100 µM | TGI [48]: > 100 µM | TGI [49]: 31.4 µM | TGI [50]: > 100 µM | TGI [51]: > 100 µM | TGI [52]: > 100 µM | TGI [53]: > 100 µM | TGI [54]: > 100 µM

C/C(=N\NC(C)(C)C)c1sc(-c2nc(C)c(/C(C)=N/NC(C)(C)C)s2)nc1C
TGI [1]: > 100 µM | TGI [2]: > 100 µM | TGI [3]: > 100 µM | TGI [4]: > 100 µM | TGI [5]: > 100 µM | TGI [6]: > 100 µM | TGI [7]: > 100 µM | TGI [8]: > 100 µM | TGI [9]: > 100 µM | TGI [10]: > 100 µM | TGI [11]: > 100 µM | TGI [12]: > 100 µM | TGI [13]: > 100 µM | TGI [14]: > 100 µM | TGI [15]: > 100 µM | TGI [16]: > 100 µM | TGI [18]: > 100 µM | TGI [19]: > 100 µM | TGI [20]: > 100 µM | TGI [21]: > 100 µM | TGI [23]: > 100 µM | TGI [55]: > 100 µM | TGI [24]: > 100 µM | TGI [25]: > 100 µM | TGI [26]: > 100 µM | TGI [27]: > 100 µM | TGI [28]: > 100 µM | TGI [29]: > 100 µM | TGI [30]: > 100 µM | TGI [32]: > 100 µM | TGI [33]: > 100 µM | TGI [34]: > 100 µM | TGI [36]: > 100 µM | TGI [37]: > 100 µM | TGI [56]: > 100 µM | TGI [38]: > 100 µM | TGI [39]: > 100 µM | TGI [40]: > 100 µM | TGI [41]: > 100 µM | TGI [42]: > 100 µM | TGI [43]: > 100 µM | TGI [44]: > 100 µM | TGI [45]: > 100 µM | TGI [46]: > 100 µM | TGI [47]: > 100 µM | TGI [48]: > 100 µM | TGI [57]: > 100 µM | TGI [49]: > 100 µM | TGI [51]: > 100 µM | TGI [52]: > 100 µM | TGI [53]: > 100 µM | TGI [54]: > 100 µM
